Experimental data taken from patent US20260184710A1, “CASITAS B-LINEAGE LYMPHOMA PROTOONCOGENE B (CBL-B) DEGRADING COMPOUNDS AND ASSOCIATED METHODS OF USE” (Arvinas Operations, Inc., priority 2022, published 2026).

Target: T1, Cbl-b (Homo sapiens, UniProt Q13191)
T1 construct: Cbl-b-HiBit KI Jurkat Cells were purchased from Promega; host or cells: Cbl-b-HiBiT knock-in Jurkat cells
Assay: Cbl-b Degradation Method B (Nano-Glo HiBiT lytic detection)
Type: cell-based
Details: Cbl-b-HiBit KI Jurkat Cells, incubated at least 6-24 hours; for DC50: half maximal degradation, read-out: Cbl-b Degredation Method B IC50; for Dmax: maximum degradation observed, read-out: Cbl-b Degredation Method B Dmax (%)
Summary of the method: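 Cbl-b-HiBiT knock-in Jurkat cells (20,000/well) were treated after ~24 h plating with an 11-point 1:3 series for 6-24 h at 37° C. Remaining Cbl-b measured by Nano-Glo HiBiT lytic luminescence. DC50 and Dmax expressed as % of control.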

T1 sequence (Q13191 whole entry): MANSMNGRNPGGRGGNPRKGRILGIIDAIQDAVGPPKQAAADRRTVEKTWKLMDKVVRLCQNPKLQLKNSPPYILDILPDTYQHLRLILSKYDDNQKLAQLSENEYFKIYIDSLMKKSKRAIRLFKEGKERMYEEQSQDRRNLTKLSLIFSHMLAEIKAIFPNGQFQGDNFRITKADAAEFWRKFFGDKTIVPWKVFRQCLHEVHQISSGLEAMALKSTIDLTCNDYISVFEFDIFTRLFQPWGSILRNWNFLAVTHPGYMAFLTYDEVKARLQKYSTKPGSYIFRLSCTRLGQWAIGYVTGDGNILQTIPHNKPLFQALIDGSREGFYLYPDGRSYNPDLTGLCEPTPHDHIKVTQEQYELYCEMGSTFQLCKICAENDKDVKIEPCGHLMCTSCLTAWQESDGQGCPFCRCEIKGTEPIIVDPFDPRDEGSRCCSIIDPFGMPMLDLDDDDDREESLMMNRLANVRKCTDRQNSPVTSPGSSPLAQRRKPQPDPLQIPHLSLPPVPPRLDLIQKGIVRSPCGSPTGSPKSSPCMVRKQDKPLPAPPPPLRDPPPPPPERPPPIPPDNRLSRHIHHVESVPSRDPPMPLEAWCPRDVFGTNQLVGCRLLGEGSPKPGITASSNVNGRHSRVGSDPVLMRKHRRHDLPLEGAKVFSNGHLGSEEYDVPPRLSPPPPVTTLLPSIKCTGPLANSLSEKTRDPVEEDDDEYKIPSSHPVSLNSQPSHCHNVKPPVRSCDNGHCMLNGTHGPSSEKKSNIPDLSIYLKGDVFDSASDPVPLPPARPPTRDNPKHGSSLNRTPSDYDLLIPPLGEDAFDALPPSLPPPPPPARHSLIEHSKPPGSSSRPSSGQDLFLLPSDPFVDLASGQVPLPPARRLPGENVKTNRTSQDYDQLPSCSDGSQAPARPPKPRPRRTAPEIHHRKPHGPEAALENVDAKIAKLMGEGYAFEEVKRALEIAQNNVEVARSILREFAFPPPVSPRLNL

Cn1cnnc1CC1(c2cccc(N3Cc4c(cc(CN5CC(CN6CCN(C7CCN(c8ccc9c(c8)C(=O)N(C8CCC(=O)NC8=O)C9=O)CC7)CC6)C5)cc4C(F)(F)F)C3=O)c2)COC1 (stereo not drawn) [Example 67, 2-(2,6-dioxopiperidin-3-yl)-5-(4-{4-[(1-{[2-(3-{3-[(4-methyl-4H-1,2,4-triazol-3-yl)methyl]oxetan-3-yl}phenyl)-3-oxo-7-(trifluoromethyl)-2,3-dihydro-1H-isoindol-5-yl]methyl}azetidin-3-yl)methyl]piperazin-1-yl}piperidin-1-yl)-2,3-dihydro-1H-isoindole-1,3-dione]
DC50: > 500 nM

Cn1cnnc1CC1(c2cccc(N3Cc4c(cc(CN5CC6(C5)CN(CC5CCN(c7ccc8c(c7)C(=O)N(C7CCC(=O)NC7=O)C8=O)CC5)C6)cc4C(F)(F)F)C3=O)c2)COC1 (stereo not drawn) [Example 68, 2-(2,6-dioxopiperidin-3-yl)-5-{4-[(6-{[2-(3-{3-[(4-methyl-4H-1,2,4-triazol-3-yl)methyl]oxetan-3-yl}phenyl)-3-oxo-7-(trifluoromethyl)-2,3-dihydro-1H-isoindol-5-yl]methyl}-2,6-diazaspiro[3.3]heptan-2-yl)methyl]piperidin-1-yl}-2,3-dihydro-1H-isoindole-1,3-dione]
DC50: > 500 nM

Cn1cnnc1CC1(c2cccc(N3Cc4c(cc(CN5CC6(C5)CN(CC5CCN(c7cccc8c7C(=O)N(C7CCC(=O)NC7=O)C8=O)CC5)C6)cc4C(F)(F)F)C3=O)c2)COC1 (stereo not drawn) [Example 69, 2-(2,6-dioxopiperidin-3-yl)-4-{4-[(6-{[2-(3-{3-[(4-methyl-4H-1,2,4-triazol-3-yl)methyl]oxetan-3-yl}phenyl)-3-oxo-7-(trifluoromethyl)-2,3-dihydro-1H-isoindol-5-yl]methyl}-2,6-diazaspiro[3.3]heptan-2-yl)methyl]piperidin-1-yl}-2,3-dihydro-1H-isoindole-1,3-dione]
DC50: > 500 nM

Cn1cnnc1CC1(c2cccc(N3Cc4c(cc(CN5CCC5CC5CCN(c6ccc7c(c6)C(=O)N(C6CCC(=O)NC6=O)C7=O)CC5)cc4C(F)(F)F)C3=O)c2)COC1 (stereo not drawn) [Example 70, 2-(2,6-dioxopiperidin-3-yl)-5-{4-[(1-{[2-(3-{3-[(4-methyl-4H-1,2,4-triazol-3-yl)methyl]oxetan-3-yl}phenyl)-3-oxo-7-(trifluoromethyl)-2,3-dihydro-1H-isoindol-5-yl]methyl}azetidin-2-yl)methyl]piperidin-1-yl}-2,3-dihydro-1H-isoindole-1,3-dione]
DC50: > 500 nM

Cn1cnnc1CC1(c2cccc(N3Cc4c(cc(CN5CCC(CCC6CCN(c7ccc8c(c7)C(=O)N(C7CCC(=O)NC7=O)C8=O)CC6)CC5)cc4C(F)(F)F)C3=O)c2)COC1 (stereo not drawn) [Example 71, 2-(2,6-dioxopiperidin-3-yl)-5-{4-[2-(1-{[2-(3-{3-[(4-methyl-4H-1,2,4-triazol-3-yl)methyl]oxetan-3-yl}phenyl)-3-oxo-7-(trifluoromethyl)-2,3-dihydro-1H-isoindol-5-yl]methyl}piperidin-4-yl)ethyl]piperidin-1-yl}-2,3-dihydro-1H-isoindole-1,3-dione]
DC50: > 500 nM

C[C@@H]1C[C@H](CN2CCC(CN3CCC(CN4CCN(c5ccc6c(c5)C(=O)N(C5CCC(=O)NC5=O)C6=O)CC4)CC3)CC2)CN(Cc2cc3c(c(C(F)(F)F)c2)CN(c2cccc(C4(Cc5nncn5C)COC4)c2)C3=O)C1 (stereo partly drawn) [Example 72, 2-(2,6-dioxopiperidin-3-yl)-5-[4-({1-[(1-{[(3R,5R)-5-methyl-1-{[2-(3-{3-[(4-methyl-4H-1,2,4-triazol-3-yl)methyl]oxetan-3-yl}phenyl)-3-oxo-7-(trifluoromethyl)-2,3-dihydro-1H-isoindol-5-yl]methyl}piperidin-3-yl]methyl}piperidin-4-yl)methyl]piperidin-4-yl}methyl)piperazin-1-yl]-2,3-dihydro-1H-isoindole-1,3-dione]
DC50: < 5 nM | Dmax: 35 to 70%

C[C@@H]1C[C@H](CN2CCC(CN3CCC(CN4CCN(c5ccc6c(c5)C(=O)N(C5CCC(=O)NC5=O)C6=O)CC4)CC3)CC2)CN(c2cc3c(c(C(F)(F)F)c2)CN(c2cccc(C4(Cc5nncn5C)COC4)c2)C3=O)C1 (stereo partly drawn) [Example 73, 2-(2,6-dioxopiperidin-3-yl)-5-[4-({1-[(1-{[(3R,5R)-5-methyl-1-[2-(3-{3-[(4-methyl-4H-1,2,4-triazol-3-yl)methyl]oxetan-3-yl}phenyl)-3-oxo-7-(trifluoromethyl)-2,3-dihydro-1H-isoindol-5-yl]piperidin-3-yl]methyl}piperidin-4-yl)methyl]piperidin-4-yl}methyl)piperazin-1-yl]-2,3-dihydro-1H-isoindole-1,3-dione]
DC50: 5 to 50 nM | Dmax: 35 to 70%

Cn1cnnc1CC1(c2cccc(N3Cc4c(cc(CN5CCC(CC6CCN(c7ccc8c(c7)C(=O)N(C7CCC(=O)NC7=O)C8=O)CC6)CC5)cc4C(F)(F)F)C3=O)c2)COC1 (stereo not drawn) [Example 78, 2-(2,6-dioxopiperidin-3-yl)-5-{4-[(1-{[2-(3-{3-[(4-methyl-4H-1,2,4-triazol-3-yl)methyl]oxetan-3-yl}phenyl)-3-oxo-7-(trifluoromethyl)-2,3-dihydro-1H-isoindol-5-yl]methyl}piperidin-4-yl)methyl]piperidin-1-yl}-2,3-dihydro-1H-isoindole-1,3-dione]
DC50: > 500 nM

Cn1cnnc1CC1(c2cccc(N3Cc4c(cc(CN5CCC(CN6CCN(c7ccc8c(c7)C(=O)N(C7CCC(=O)NC7=O)C8=O)CC6)C5)cc4C(F)(F)F)C3=O)c2)COC1 (stereo not drawn) [Example 80, 2-(2,6-dioxopiperidin-3-yl)-5-{4-[(1-{[2-(3-{3-[(4-methyl-4H-1,2,4-triazol-3-yl)methyl]oxetan-3-yl}phenyl)-3-oxo-7-(trifluoromethyl)-2,3-dihydro-1H-isoindol-5-yl]methyl}pyrrolidin-3-yl)methyl]piperazin-1-yl}-2,3-dihydro-1H-isoindole-1,3-dione]
DC50: > 500 nM

Cn1cnnc1CC1(c2cccc(N3Cc4c(cc(CN5CCC[C@H](CN6CCN(C(=O)[C@H]7CC[C@@H](OC8CCN(c9ccc%10c(c9F)CN(C9CCC(=O)NC9=O)C%10=O)CC8)CC7)CC6)C5)cc4C(F)(F)F)C3=O)c2)COC1 (stereo partly drawn) [Example 113, 3-[4-fluoro-1-oxo-5-(4-{[(1r,4r)-4-(4-{[(3S)-1-{[2-(3-{3-[(4-methyl-4H-1,2,4-triazol-3-yl)methyl]oxetan-3-yl}phenyl)-3-oxo-7-(trifluoromethyl)-2,3-dihydro-1H-isoindol-5-yl]methyl}piperidin-3-yl]methyl}piperazine-1-carbonyl)cyclohexyl]oxy}piperidin-1-yl)-2,3-dihydro-1H-isoindol-2-yl]piperidine-2,6-dione]
DC50: < 5 nM | Dmax: 35 to 70%

Cn1cnnc1C[C@]1(c2cccc(N3Cc4c(cc(N5CC6(CCN(C(=O)C7CCN(c8ccc9c(c8)C(=O)N(C8CCC(=O)NC8=O)C9=O)CC7)CC6)C5)cc4C(F)(F)F)C3=O)c2)C[C@H](C#N)C1 (stereo partly drawn) [Example 146, 3-[3-[6-[7-[1-[2-(2,6-dioxo-3-piperidyl)-1,3-dioxo-isoindolin-5-yl]piperidine-4-carbonyl]-2,7-diazaspiro[3.5]nonan-2-yl]-1-oxo-4-(trifluoromethyl)isoindolin-2-yl]phenyl]-3-[(4-methyl-1,2,4-triazol-3-yl)methyl]cyclobutanecarbonitrile]
DC50: 5 to 50 nM | Dmax: < 35%

Cn1cnnc1CC1(c2cccc(-n3cc4ccc(CN5CCC[C@H](CN6CCN(C[C@H]7CC[C@H](OC8CCN(c9ccc%10c(c9F)CN(C9CCC(=O)NC9=O)C%10=O)CC8)CC7)CC6)C5)cc4n3)c2)COC1 (stereo partly drawn) [Example 147, 3-[4-fluoro-5-[4-[4-[[4-[[(3S)-1-[[2-[3-[3-[(4-methyl-1,2,4-triazol-3-yl)methyl]oxetan-3-yl]phenyl]indazol-6-yl]methyl]-3-piperidyl]methyl]piperazin-1-yl]methyl]cyclohexoxy]-1-piperidyl]-1-oxo-isoindolin-2-yl]piperidine-2,6-dione]
DC50: > 500 nM

COc1c(N2CCC(OC3CCC4(CC3)CN(c3cc5c(c(C(F)(F)F)c3)CN(c3cccc(C6(Cc7nncn7C)COC6)c3)C5=O)C4)CC2)ccc2c1CN(C1CCC(=O)NC1=O)C2=O (stereo not drawn) [Example 149, 3-[4-methoxy-5-[4-[[2-[2-[3-[3-[(4-methyl-1,2,4-triazol-3-yl)methyl]oxetan-3-yl]phenyl]-3-oxo-7-(trifluoromethyl)isoindolin-5-yl]-2-azaspiro[3.5]nonan-7-yl]oxy]-1-piperidyl]-1-oxo-isoindolin-2-yl]piperidine-2,6-dione]
DC50: 5 to 50 nM | Dmax: 35 to 70%

Cc1cc(N2C[C@H]3C[C@@H]2CN3CC2CCC3(CC2)CN(c2cc4c(c(C(F)(F)F)c2)CN(c2cccc([C@]5(Cc6nncn6C)C[C@@H](C#N)C5)c2)C4=O)C3)c(F)c2c1C(=O)N(C1CCC(=O)NC1=O)C2 (stereo partly drawn) [Example 150, 3-[3-[6-[7-[[(1R,4R)-5-[2-(2,6-dioxo-3-piperidyl)-4-fluoro-7-methyl-1-oxo-isoindolin-5-yl]-2,5-diazabicyclo [2.2.1]heptan-2-yl]methyl]-2-azaspiro [3.5]nonan-2-yl]-1-oxo-4-(trifluoromethyl)isoindolin-2-yl]phenyl]-3-[(4-methyl-1,2,4-triazol-3-yl)methyl]cyclobutanecarbonitrile]
DC50: > 500 nM

CC1c2nc(N3CCC(O[C@H]4CC[C@H](CN5CCN(Cc6ccc7c(n6)C(=O)N(c6cccc(C8(Cc9nncn9C)COC8)c6)C7)CC5)CC4)CC3)ccc2C(=O)N1C1CCC(=O)NC1=O (stereo partly drawn) [Example 151, 3-[7-methyl-2-[4-[4-[[4-[[6-[3-[3-[(4-methyl-1,2,4-triazol-3-yl)methyl]oxetan-3-yl]phenyl]-7-oxo-5H-pyrrolo [3,4-b]pyridin-2-yl]methyl]piperazin-1-yl]methyl]cyclohexoxy]-1-piperidyl]-5-oxo-7H-pyrrolo [3,4-b]pyridin-6-yl]piperidine-2,6-dione]
DC50: 5 to 50 nM | Dmax: 35 to 70%
